ChEMBL document CHEMBL4257515, “Assessment of the trifluoromethyl ketone functionality as an alternative zinc-binding group for selective HDAC6 inhibition” (Medchemcomm, 2018)
Active and inactive are the calls of the source. The rule behind the calls is not given here.

Key:
[1] = molecular target: T1, Protein deacetylase HDAC6 (Homo sapiens) (UniProt Q9UBN7); test: Inhibition of full length recombinant human HDAC6 at 10 uM using Fluor-de-Lys deacetylase as substrate preincubated for 15 mins followed by substrate addition and measured after 60 mins by spectrofluorimetric method relative to control
T1 sequence (whole entry): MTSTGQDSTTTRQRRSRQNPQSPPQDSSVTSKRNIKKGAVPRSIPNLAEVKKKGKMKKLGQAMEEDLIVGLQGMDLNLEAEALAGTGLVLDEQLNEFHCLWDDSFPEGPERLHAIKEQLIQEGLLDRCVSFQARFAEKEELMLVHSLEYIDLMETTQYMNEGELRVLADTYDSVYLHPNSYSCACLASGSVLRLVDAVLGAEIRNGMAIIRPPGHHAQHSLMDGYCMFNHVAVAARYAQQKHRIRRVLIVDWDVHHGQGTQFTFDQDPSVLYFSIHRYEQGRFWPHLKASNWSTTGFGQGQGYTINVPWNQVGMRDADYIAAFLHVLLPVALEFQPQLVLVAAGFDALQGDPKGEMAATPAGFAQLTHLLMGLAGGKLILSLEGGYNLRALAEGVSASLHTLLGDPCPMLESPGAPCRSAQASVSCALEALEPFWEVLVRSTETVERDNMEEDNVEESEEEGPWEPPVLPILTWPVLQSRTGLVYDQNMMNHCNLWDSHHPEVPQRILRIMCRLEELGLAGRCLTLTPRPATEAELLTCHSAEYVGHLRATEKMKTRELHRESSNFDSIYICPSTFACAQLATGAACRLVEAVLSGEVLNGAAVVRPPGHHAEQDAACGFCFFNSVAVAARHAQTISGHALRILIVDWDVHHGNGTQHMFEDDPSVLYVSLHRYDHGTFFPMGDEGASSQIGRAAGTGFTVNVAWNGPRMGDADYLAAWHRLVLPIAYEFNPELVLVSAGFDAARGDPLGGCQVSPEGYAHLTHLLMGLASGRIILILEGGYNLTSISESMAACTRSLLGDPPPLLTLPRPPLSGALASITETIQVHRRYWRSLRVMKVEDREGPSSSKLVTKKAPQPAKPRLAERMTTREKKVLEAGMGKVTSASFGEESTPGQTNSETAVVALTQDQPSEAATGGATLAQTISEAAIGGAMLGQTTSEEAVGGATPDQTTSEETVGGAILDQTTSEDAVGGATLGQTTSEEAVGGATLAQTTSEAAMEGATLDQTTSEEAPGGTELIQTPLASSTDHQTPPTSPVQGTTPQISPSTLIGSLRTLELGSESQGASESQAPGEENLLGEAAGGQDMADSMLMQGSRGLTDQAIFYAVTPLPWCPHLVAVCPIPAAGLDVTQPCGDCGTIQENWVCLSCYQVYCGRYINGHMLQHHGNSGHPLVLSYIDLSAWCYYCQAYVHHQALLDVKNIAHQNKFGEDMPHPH

[2] = molecular target: T1, Protein deacetylase HDAC6 (Homo sapiens); test: Inhibition of HDAC6 in human SKOV3 cells assessed as increase in acetylated tubulin levels at 1 uM after 1 hr by immunoblot method; format: cell-based
[3] = molecular target: T1, Protein deacetylase HDAC6 (Homo sapiens); test: Inhibition of HDAC6 in human SKOV3 cells assessed as increase in acetylated tubulin levels at 1 to 50 uM after 1 hr by immunoblot method; format: cell-based
[4] = molecular target: Histone deacetylase (Homo sapiens) (UniProt Q13547+O15379+Q9UBN7+Q92769+Q9UQL6+Q8WUI4+Q9BY41+Q96DB2+P56524+Q9UKV0+Q969S8); test: Inhibition of nuclear HDAC in human SKOV3 cells assessed as increase in acetylated histone H3 levels at 1 to 50 uM after 1 hr by immunoblot method; format: cell-based
[5] = system: SK-OV-3; test: Antiproliferative activity against human SKOV3 cells at 1 to 50 uM measured every 2 hrs for 200 hrs by IncuCyte ZOOM cell confluence assay; format: functional, cell-based
[6] = system: SK-OV-3; test: Antiproliferative activity against human SKOV3 cells at 10 uM measured every 2 hrs for 200 hrs by IncuCyte ZOOM cell confluence assay; format: functional, cell-based

Compound | inhibition [1] | other results
O=C(c1ccccc1)C(F)(F)F | 0% | 
O=C(NO)c1ccc(Cn2c3c(c4cc(F)ccc42)C[S+]([O-])CC3)cc1 (stereo not given) | 100% | inhibition [2]: Active
O=C(NO)c1ccccc1 | 88% | 
O=C(CCCCCCC(=O)Nc1ccccc1)NO |  | Activity [6]: Active

More lines, main results first:

inhibition [1] | Compound | other results
17% | O=C(c1ccc(Cn2c3c(c4ccccc42)C[S+]([O-])CC3)cc1)C(F)(F)F (stereo not given) | 
25% | O=C(c1ccc(Cn2c3c(c4cc(F)ccc42)C[S+]([O-])CC3)cc1)C(F)(F)F (stereo not given) | inhibition [3]: inactive; inhibition [4]: inactive; Activity [5]: inactive
